Measured values from patent US20260027103A1, “PHARMACEUTICAL COMPOSITIONS COMPRISING A QUINOLONE COMPOUND FOR IRRITABLE BOWEL SYNDROME” (OTSUKA PHARMACEUTICAL CO., LTD., priority 2022, published 2026).

Columns and labels:
[1] = system: restraint stress (RS) rat model; assay: Restraint stress (RS) rat model: body weight, food intake, fecal pellet output; format: in vivo, Sprague-Dawley (SD) rats
Text: Male Sprague-Dawley (SD) rats, weighting 200-250 g were purchased from Charles River Laboratories Beijing and housed in an SPF grade animal facility of OSRI in individual ventilated cages (IVC), with 3 rats per cage. All animals were maintained with a 12-hour light/dark cycle and had free access to rodent chow and water. All animal study procedures were in accordance with Animal Welfare Regulations and approved by the Institutional Animal Care and Use Committee (IACUC) of OSRI.
Rats (from group #2 and group #3) were submitted to a 2-hour restraint in a plastic cylinder daily in the PM for 10 consecutive days (D1 to D10). Rats from the control group (group #1) remained in their individual cages, undisturbed throughout the entire experiment. After 3 days of repeated RS modeling, from D4 to D10, the rats from group #2 and group #3 were treated in the morning (4h ahead of PM restraint) with vehicle (5% AG) and the test substance (2.5 mg/kg) respectively for 7 consecutive days. Fecal pellet output was used to estimate distal colonic motility as a validated index (Hong S et al., Gut 2009, 58:202-210). During the 2-hour restraint period, the rat's fecal pellet output was collected and counted, same for the rats in control group during the same 2-hour mock observation period.

histamine = assay: Urine histamine level by ELISA in RS model; format: in vivo, Sprague Dawley Rats; details: rat, 2.5 mg/kg PO, day 7 (4 days post treatment), p<0.01 vs RS group, FIG. 6
Experimental: (§1) Sprague Dawley Rats were submitted to a 2h restraint in a plastic cylinder daily for 7 consecutive days as described above. In control group, the rats were remained in an individual cage, undisturbed, throughout the experiment.
Urine samples were collected every day after the restraint. A plastic dish was placed underneath restraint tube and the urine sample was collected. It is immediately transferred into a tube and stored at-800C until further analysis. Histamine was measured with the Histamine ELISA Kit ((CAT #: D751012, BBI) according to the manufacturer's instructions as follows.
Calculate the required number of slats in advance, and take out the kit 30 minutes before the test and restore it to room temperature. • 2. Add 50 μL of standard working liquid and test sample to each reaction hole. The standard needs to be re-drilled. 50 μL of biotin-labeled histamine antibody working solution was added to each reaction well immediately, and the plate was sealed and incubated at 37° C. for 45 min. • 3. […] OD value was measured with 450 nm wavelength of enzyme label instrument. • 9. Draw a standard curve with the concentration of standard substance as the horizontal coordinate and absorbance as the vertical coordinate. • 10. Statistical significance was either calculated by two-tailed T-test (visceral sensitivity on day 3) or one-way ANOVA using Dunnett's multiple comparison. […]

[2] = system: restraint stress (RS) rat model; assay: Visceromotor response to colorectal distention in RS model; format: in vivo, Sprague Dawley Rats; details: 2.5 mg/kg PO, day 7 (4 days post dose), p<0.05 vs RS group, FIG. 5
Experimental: as §1
Colonic distension—A polyethylene balloon (3 cm long, 1.5 cm max. diameter) was secured to tubing attached to a blood pressure meter to be used to perform colonic distension. The balloon was lubricated and placed into the rat's distal colon so that the tip of the balloon was 2 cm proximal to the anus. Using the blood pressure meter distension device, rats were restrained in a plastic containment device and allowed to acclimate for 10 min before testing. The rats received phasic distension (0-100 mmHg in 5-mmHg ascending increments) of the colon until the first contraction of the testicles, tail or abdominal musculature occurred. This visualization was performed by three independent observers. […] Compliance of the colon was not measured given the rapid distension protocol used in this study. The colonic distensions were repeated three times with 5-min interstimulus intervals and the mean pressures at the nociceptive threshold were recorded for each rat.
Statistical significance was either calculated by two-tailed T-test (visceral sensitivity on day 3) or one-way ANOVA using Dunnett's multiple comparison. P<0.05 was considered statistically significant.

Cc1c(-c2cnc(N)c(C#N)c2)c(F)cc2c(=O)c(C(=O)O)cn(C3CC3)c12 [OPS-2071, 1-cyclopropyl-6-fluoro-1,4-dihydro-8-methyl-7-(2-amino-3-cyano-5-pyridyl)-4-oxo-3-quinoline-carboxylic acid]
body weight / body weight change (BWC) % in RS-IBS model ([1]; 2.5 mg/kg PO QD for 7 days from D4, group #3 vs. RS vehicle group #2, FIGS. 1 and 2): body weight drop caused by restraint stress is improved | fecal pellet output during 2-hour restraint ([1]; 2.5 mg/kg PO from day 4, group #3 vs. group #2, FIG. 3): a decrease of the fecal pellet output was observed | food intake (appetite) in RS model ([1]; 2.5 mg/kg PO, monitored from 3 days post treatment initiation, group #3 vs. group #2): protective effect on decreased appetite | urine histamine level (histamine): decreased | visceral sensitivity (visceromotor response to colorectal distention, mmHg) [2]: a decrease in visceral sensitivity
